# From US20140371258A1 (priority 2010, published 2014)
# Entries after “also recorded” stand apart in the source; their conditions may differ. Like-named read-outs stand apart in the source and are kept apart here.
# Assays:
# HT29 human colon tumor = assay: HT29 colorectal cancer xenograft efficacy study; conditions: for Non-Specific Deaths / Regressions (100%) / Tumor Free on Day 99: 10 animals per group; for Growth Delay (T-C): based on median days to 1000 mg
# Text: Six-weeks-old female athymic NCr-nu/nu mice were purchased from Charles River Laboratories, Inc. (Wilmington, Mass.) and acclimated in the laboratories for nine days prior to experimentation. The mice were housed in microisolator cages, up to five animals per cage. Each animal in the cage was identified by an ear punch. All mice were on a 12-hour light/dark cycle and received filtered municipal water and sterilizable rodent diet (Harlan-Teklad TD8656) ad libitum. Cages were changed twice weekly. The animals were observed daily and clinical signs were noted.
# Thirty-to-forty mg fragments of HT29 human colon tumor, propagated in an in vivo passage, were implanted sc on the right flank area of mice using a12-gauge trocar needle. The day of tumor implantation was designated as Day 0. […] A sufficient number of mice were implanted so that animals with tumors in a weight range as narrow as possible were selected for the trial on the day of treatment initiation (Day 14 after tumor implantation). Those animals selected with tumors in the proper size range on Day 14 were placed in several large cages and then assigned randomly to the various treatment groups.
# The lower dosage was achieved by further dilution with saline. The dosing solutions were treated as light-sensitive (formulated under amber lights and dispensed into brown bottles), stored at room temperature, and administered within 2 h of formulation. […] The lower dosage was achieved by further dilution with saline. The dosing solutions were treated as light-sensitive (formulated under amber lights and dispensed into brown bottles), were stored at room temperature, and were administered within 2 h of formulation. Topotecan was prepared at a concentration of 1.0 mg/mL on each day of treatment in saline. The lower dosages were achieved by further dilutions with saline. The dosing solutions were treated as light-sensitive (formulated under amber lights and dispensed into brown bottles), were kept on ice, and were administered within 30 min of formulation. Saline was obtained from Phoenix Pharmaceutical, Inc.
# The study consisted of a vehicle-treated control group and seven treatment groups with ten mice each for a total of 80 mice at the start of treatment. […] The control group was treated intravenously with saline on the same treatment schedule. All treatments were administered by exact body weight with the injection volume being 0.2 mL/10 g of body weight.
# Tumors were measured (the limit of detection being 32 mg (4×4 mm)) and the animals were weighed twice weekly starting with the first day of treatment. Tumor volume was determined by caliper measurements (mm) and using the formula for an ellipsoid sphere: L×W^2/2=mm^3, where L and W refer to the larger and smaller perpendicular dimensions collected at each measurement. This formula is also used to calculate tumor weight, assuming unit density (1 mm^3=1 mg). Individual tumor and body weight measurements were collected.
# Number of non-specific deaths, number of complete tumor regressions, number of tumor-free survivors on Day 99, and median number of days for the tumors in each group to reach 1,000 mg were calculated. The median time (in days) to reach 1,000 mg was used in the calculation of the overall delay in the growth of the median tumor (T-C; T=treated group; C=control group). Individual tumor weights, group median tumor weights, TIC (%) based on median tumor weights, group mean tumor weights, standard error of the mean tumor weights, the time for the individual animal's tumor to reach 1,000 mg, individual body weights, mean body weights, and the change in mean body weights relative to the mean body weight on the first day of collection (in grams and as a percent) were collected.
# in vivo = conditions: mouse, iv
# Protocol: (§1) The experiment consisted of 3 treatment groups of 36 mice per group plus an untreated group of 3 mice for a total of 39 mice on the day of treatment. […] The above ‘topotecan-equivalent’ concentrations were calculated based on the topotecan content for each compound. […] At intervals (0.5, 1, 2, 4, 8, 12, 24, 72, 120, 168, 216 hr) following drug administration, 3 animals per treatment group were sacrificed, blood collected via cardiac puncture, and tumor tissue was excised. Tumor tissue was flash frozen and stored at −80° C. until analysis. Blood was processed to obtain plasma and stabilizers added as described for PK studies in beagle dogs. Samples were frozen and stored at −80° C. until analysis.
# (§2) Plasma and tumor-tissue were analyzed by LC/MS-MS for topotecan. Data was reported as ng/mL for plasma samples and ng/mg for tumor samples.
# [1] = Maximum tolerated dose (tolerance) study, Q4D×3 iv; format: in vivo, female athymic NCr-nu/nu mice
# Single-dose MTD study = assay: Single-dose MTD study; design: species or system mice; conditions: mouse, in vivo, intravenous, topotecan-equivalent
# [2] = mouse, in vivo, iv
# Protocol: as §1, §2
# [3] = tested on: human NCI-H460 lung tumor; assay: NCI-H460 lung tumor xenograft efficacy study; format: in vivo
# Text: The purpose of the study was to evaluate the antitumor efficacy of exemplary PEG topotecan conjugates along with unmodified topotecan when administered against subcutaneously (sc) implanted human NCI-H460 lung tumor xenografts in male athymic nude mice.
# Six-weeks-old male athymic nude mice were purchased from Charles River (Wilmington, Mass.) and acclimated in the laboratories prior to experimentation. […] Cages were changed twice weekly.
# Thirty-to-forty mg fragments of human NCI-H460 lung tumor were implanted sc in mice near the right axillary area using a 12-gauge trocar needle and allowed to grow.
# On each day of injection, a 15.625 mg/mL solution of PEG-topotecan (the amount of PEG-topotecan being 31.25 times the topotecan dosage) was prepared in saline. A portion of this solution was diluted with saline to the lower concentrations. All three solutions were quite viscous. A 0.5 mg/mL solution of topotecan was prepared in saline on each day of treatment. Lower dosages were achieved by diluting this solution with saline. All dosing solutions were administered by exact body weight using an injection volume of 0.2 mL/10 g of body weight. Both PEG-topotecan and topotecan solutions were prepared in subdued light with PEG-topotecan injected within two hours of preparation and topotecan injected within 30 minutes of preparation.
# The experiment consisted of six treatment groups of ten mice per group and one vehicle-treated control group also with ten mice for a total of 70 mice on the first day of treatment. Both PEG-topotecan and topotecan were administered intravenously (iv) as three injections given four days apart (q4d×3) at dosages of 10, 2.5, and 1 mg/kg/dose. The control group (group 1) was treated with the vehicle (saline), which was also administered iv q4d×3.
# The study was terminated 55 days after tumor implantation. Any animal whose tumor became ulcerated or reached 4,000 mg was euthanized prior to study termination.
# [4] = tested on: human NCI-H460 lung tumor; assay: H460 tumor growth after a single IV administration; format: in vivo; conditions: single iv injection at each compound's MTD; FIG. 7
# Protocol: Six-weeks-old female athymic nude mice were purchased from Charles River (Wilmington, Mass.) and acclimated in the laboratories prior to experimentation. […] The animals were observed daily and clinical signs were noted.
# Thirty-to-forty mg fragments of human NCI-H460 lung tumor were implanted sc in mice near the right axillary area using a 12-gauge trocar needle and allowed to grow. The day of tumor implantation was designated as day −7. Tumors were allowed to reach 100-234 mg in weight (100-234 mm^3 in size) before the start of treatment. A sufficient number of mice were implanted so that tumors in a weight range as narrow as possible were selected for the trial on the day of treatment initiation (day 7 after tumor implantation). […]
# The experiment consisted of 3 treatment groups of 36 mice per group plus an untreated group of 3 mice for a total of 39 mice on the day of treatment. […] The above ‘topotecan-equivalent’ concentrations were calculated based on the topotecan content for each compound. […]
# The sc tumors were measured and the animals were weighed twice weekly starting with the first day of treatment. Tumor volume was determined by caliper measurements (mm) and using the formula for an ellipsoid sphere: L×W^2/2=mm^3, where L and W refer to the larger and smaller perpendicular dimensions collected at each measurement. […]
# [5] = humans, cited from earlier work
compound,measurement,setting,value
"CC[C@@]1(O)C(=O)OCc2c1cc1n(c2=O)Cc2cc3c(CN(C)C)c(O)ccc3nc2-1 [topotecan, (S)-10-[(dimethylamino)methyl]-4-ethyl-4,9-dihydroxy-1H-pyrano[3′,4′:6,7]indolizino[1,2-b]quinoline-3,14(4H,12H)-dione]",Median Days to 1000 mg,HT29 human colon tumor; 7.5 mg/kg/inj iv Q4Dx3(14),38.5 days
same,Non-Specific Deaths,HT29 human colon tumor; 7.5 mg/kg/inj iv Q4Dx3(14),0
same,Regressions (100%),HT29 human colon tumor; 7.5 mg/kg/inj iv Q4Dx3(14),0
same,Tumor Free on Day 99,HT29 human colon tumor; 7.5 mg/kg/inj iv Q4Dx3(14),0
same,Growth Delay (T-C),HT29 human colon tumor; 7.5 mg/kg/inj iv Q4Dx3(14),4.4 days
same,Median Days to 1000 mg,HT29 human colon tumor; 15 mg/kg/inj iv Q4Dx3(14),46.8 days
same,Non-Specific Deaths,HT29 human colon tumor; 15 mg/kg/inj iv Q4Dx3(14),two
same,Regressions (100%),HT29 human colon tumor; 15 mg/kg/inj iv Q4Dx3(14),0
same,Tumor Free on Day 99,HT29 human colon tumor; 15 mg/kg/inj iv Q4Dx3(14),0
same,Non-Specific Deaths,"HT29 human colon tumor; 15 mg/kg/inj iv Q4Dx3(14), listed as Top",2
same,Growth Delay (T-C),HT29 human colon tumor; 15 mg/kg/inj iv Q4Dx3(14),12.7 days
same,Median Days to 1000 mg,HT29 human colon tumor; 20 mg/kg/inj iv Q4Dx3(14),49.9 days
same,Non-Specific Deaths,HT29 human colon tumor; 20 mg/kg/inj iv Q4Dx3(14),two
same,Regressions (100%),HT29 human colon tumor; 20 mg/kg/inj iv Q4Dx3(14),0
same,Tumor Free on Day 99,HT29 human colon tumor; 20 mg/kg/inj iv Q4Dx3(14),0
same,Non-Specific Deaths,"HT29 human colon tumor; 20 mg/kg/inj iv Q4Dx3(14), listed as Top",2
same,Growth Delay (T-C),HT29 human colon tumor; 20 mg/kg/inj iv Q4Dx3(14),15.8 days
same,inhibition of growth of HT29 human colon tumor xenografts,HT29 human colon tumor; dosage of 7.5 mg/kg/inj iv Q4D×3,minimally effective
same,inhibition of growth of HT29 human colon tumor xenografts,HT29 human colon tumor; dosages of 20 and 15 mg/kg/inj iv Q4D×3,effective
same,concentration at 5 day,in vivo,< 1000 ng/g
same,maximum average body weight loss,"[1]; iv Q4D×3, 5 mg/kg/inj",0%
same,maximum average body weight loss,"[1]; iv Q4D×3, 10 mg/kg/inj",0%
same,maximum tolerated dosage (MTD),"[1]; iv Q4D×3, not more than 10% deaths, no more than 20% average body weight loss",15 mg/kg/inj
same,deaths,"[1]; non-tumor-bearing mice, iv Q4D×3, dosages of 15, 10, and 5 mg/kg/inj",no deaths; also recorded: without deaths
same,MTD,Single-dose MTD study,20 mg/kg
same,detectability of topotecan in plasma,[2],undetectable beyond 24 hr post-injection
same,growth delay compared with PEG-topotecan at the same dosage,[3]; 1.0 mg/kg/dose,significantly greater
same,deaths,[3]; 1.0 mg/kg/dose iv q4d×3,without deaths
same,deaths,[3]; 2.5 mg/kg/dose iv q4d×3,without deaths
same,deaths,[3]; 10 mg/kg/dose iv q4d×3,one
same,tumor growth inhibition / delay,[4],only minimal tumor growth delay; also recorded: delayed modestly
same,biological half life t1/2,[5]; 30 min iv,2.8 hours
camptothecin sodium,biological half life t1/2,[5]; bolus iv,15.3 hours
